Assay results taken from US20230085307A1, “PYRIDAZINONE COMPOUND AND HERBICIDE” (NISSAN CHEMICAL CORPORATION, priority 2019, published 2023).

What was measured:
directly sowed rice = assay: Test Example 3: effect on crop by foliage application, Wagner pot (Table 18, symbol b); format: in vivo; details: 214 g/ha
Procedure, shortened: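 Plants were sown in alluvial soil held under 0.1–0.5 cm standing water and grown 14 days in a greenhouse at 25–30 °C. An emulsifiable formulation, water-diluted to the set dose, was then sprayed onto the foliage, and effects were scored three weeks later using previously defined criteria.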

beet [1] = assay: Test Example 5: effect on crop by foliage application, plastic box (Table 20, symbol f); format: in vivo; details: 214 g/ha, three weeks after application
Procedure, shortened: (§1)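 Sow seeds spot-wise in sterilized diluvial soil; cover with ~1.5 cm soil. Grow 14 days in greenhouse, 25° C. to 30° C. Spray foliage with emulsion diluted to predetermined amount. Rate effect after 3 weeks.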

beet [2] = assay: Test Example 4: effect on crop by soil treatment (Table 19, symbol f); format: in vivo; details: amount of applied herbicide 214 g/ha
Procedure, shortened: (§2)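 Applied as a water-diluted emulsion, the compound was sprayed onto soil covering newly sown seeds. Evaluation came three weeks after application, in a greenhouse held at 25° C. to 30° C.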

wheat [3] = assay: Test Example 5: effect on crop by foliage application, plastic box (Table 20, symbol e); format: in vivo; details: 214 g/ha, three weeks after application
Procedure, shortened: as §1

transplanted rice = assay: Test Example 1: effect on crop, application before weed generation under submerged conditions (Table 16, symbol a); format: in vivo; details: amount of applied herbicide 214 g/ha
Procedure, shortened: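 Emulsion formulation, water-diluted to set dose, was put onto the flooded surface (4 cm depth, alluvial soil) the same day weeds were sown and 2.5-leaf rice transplanted. After 3 weeks at 25-30 °C under glass, each species was rated 0 (≤5% kill) to 5 (≥90% kill).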

corn [4] = assay: Test Example 4: effect on crop by soil treatment (Table 19, symbol c); format: in vivo; details: amount of applied herbicide 214 g/ha
Procedure, shortened: as §2

soybean [5] = assay: Test Example 4: effect on crop by soil treatment (Table 19, symbol d); format: in vivo; details: amount of applied herbicide 214 g/ha
Procedure, shortened: as §2

false cleavers = assay: Test Example 5: herbicidal effect by foliage application, plastic box (Table 20, symbol Q); format: in vivo, false cleavers (Galium spurium); details: foliage application, 214 g/ha, three weeks after application
Procedure, shortened: as §1

rapeseed [6] = assay: Test Example 4: effect on crop by soil treatment (Table 19, symbol g); format: in vivo; details: amount of applied herbicide 214 g/ha
Procedure, shortened: as §2

soybean [7] = assay: Test Example 5: effect on crop by foliage application, plastic box (Table 20, symbol d); format: in vivo; details: 214 g/ha, three weeks after application
Procedure, shortened: as §1

rapeseed [8] = assay: Test Example 5: effect on crop by foliage application, plastic box (Table 20, symbol g); format: in vivo; details: 214 g/ha, three weeks after application
Procedure, shortened: as §1

wheat [9] = assay: Test Example 4: effect on crop by soil treatment (Table 19, symbol e); format: in vivo; details: amount of applied herbicide 214 g/ha
Procedure, shortened: as §2

corn [10] = assay: Test Example 5: effect on crop by foliage application, plastic box (Table 20, symbol c); format: in vivo; details: 214 g/ha, three weeks after application
Procedure, shortened: as §1

melting point: 243 to 244 °C
Structure (SMILES): COc1ccc2c(-c3c(O)c(C)nn(C)c3=O)c(-c3ccccc3OC)sc2c1 [Compound No. 3-065, 5-hydroxy-4-(6-methoxy-2-(2-methoxyphenyl)benzo[b]thiophen-3-yl)-2,6-dimethylpyridazin-3(2H)-one]
effect on directly sowed rice (b) (directly sowed rice): 1 (Herbicidal rate of 5% or more and less than 20%)
f: beet, effect on crop grade (beet [1]): 5 (Herbicidal rate of 90% or more (almost completely withered))
f: beet, effect on crop grade (beet [2]): 3 (Herbicidal rate of 40% or more and less than 70%)
e: wheat, effect on crop grade (wheat [3]): 2 (Herbicidal rate of 20% or more and less than 40%)
Effect on crop, a: transplanted rice (transplanted rice): 0 (Herbicidal rate of 5% or less (almost no effect))
c: corn, effect on crop grade (corn [4]): 0 (Herbicidal rate of 5% or less (almost no effect))
d: soybean, effect on crop grade (soybean [5]): 0 (Herbicidal rate of 5% or less (almost no effect))
Q: false cleavers, herbicidal effect grade (false cleavers): 5 (Herbicidal rate of 90% or more (almost completely withered))
g: rapeseed, effect on crop grade (rapeseed [6]): 5 (Herbicidal rate of 90% or more (almost completely withered))
d: soybean, effect on crop grade (soybean [7]): 5 (Herbicidal rate of 90% or more (almost completely withered))
g: rapeseed, effect on crop grade (rapeseed [8]): 5 (Herbicidal rate of 90% or more (almost completely withered))
e: wheat, effect on crop grade (wheat [9]): 0 (Herbicidal rate of 5% or less (almost no effect))
c: corn, effect on crop grade (corn [10]): 0 (Herbicidal rate of 5% or less (almost no effect))
